Data as given in publication PMC8808171, “Nonselective TRPC channel inhibition and suppression of aminoglycoside-induced premature termination codon readthrough by the small molecule AC1903” (The Journal of Biological Chemistry, 2022).

Test system: DMS-114 cells (TP53 R213X)
Assay: G418-induced PTC readthrough (full-length p53, capillary electrophoresis Western) in DMS-114 cells
Type: cell-based, human
Settings: for reduction of PTC readthrough compared with G418 alone: then 400 μg/ml G418 (Fig. 2A)
From the text: Variation in PTC readthrough response has been reported among individuals or cell lines with different nonsense mutations. Although this in part highlights the importance of the stop codon and its surrounding sequence as well as the physical location of the nonsense mutation in the mRNA sequence, understanding the contribution of other underlying genetic variations becomes more complicated. To rule out the effect of the sequence and position of nonsense mutations on response variation to potential PTC readthrough modulators, we studied two cancer cell lines, DMS-114 and TC-71, with identical homozygous nonsense mutation R213X in their TP53 gene. […] To find out whether the reduced response to G418 in TC-71 cells was associated with lower intracellular levels of G418, we measured concentrations of G418 in both cell lines at 0, 8 and 24 h post exposure to G418 (100 μg/ml).
Figure 1 Effect of TRPC inhibitors on G418 induced PTC readthrough. A, DMS-114 and TC-71 cell lines with homozygous TP53 nonsense mutation (R213X) were exposed to indicated concentrations of G418 for 24 h and p53 levels (full-length, FL-p53; truncated, TR-p53) were measured. B, 100 μg/ml G418 was added to DMS-114 and TC-71 cells and its total intracellular levels were measured at indicated time points (n = 5; data normalized to the highest response in each experiment; bars represent mean ± SD). C, DMS-114 cells were preincubated with indicated concentrations of TRPC inhibitors GFB-8438 (GFB), SAR7334 (SAR), SKF96365 (SKF), 2-APB, or AC1903 for 3 h followed by exposure to 400 μg/ml G418 for another 3 h. At 24 h cell lysates were prepared and p53 levels were measured. In panels A and C, protein levels were measured by automated capillary electrophoresis Western analysis (using vinculin and GAPDH as loading controls). Samples of cell lysates containing equal amounts of total protein were loaded in all capillaries and FL-p53 levels were expressed relative to the amount of FL-p53 in untreated cells. ∗ indicates statistically significant difference between samples according to two-way ANOVA (p < 0.05). PTC, premature termination codon; TRPC, transient receptor potential canonical.
To further investigate AC1903 as a suppressor of G418-induced PTC readthrough, we exposed DMS-114 and TC-71 cells to various concentrations of AC1903 for 3 h prior to exposure to 400 μg/ml G418 for another 3 h, followed by media replacement and incubation for another 18 h.
Figure 2 Effect of AC1903 on PTC readthrough and G418 trafficking.A and B, DMS-114 (A) or TC-71 (B) cells were pretreated with indicated concentrations of AC1903 for 3 h followed by exposure to 400 μg/ml G418. After 3 h medium was replenished and at 24 h cell lysates were prepared and p53 levels were measured. C and E, DMS-114 (C) or JEB01 (E) cells were either left untreated or pretreated with 150 μM AC1903 for 3 h followed by exposure to indicated concentrations of G418 for another 3 h. At 24 h cell lysates were prepared and p53 (C) or Collagen XVII (E) levels were measured. In panels A–C, protein levels were measured by automated capillary electrophoresis Western analysis (using vinculin as loading control). In panel E, protein levels were measured by Western blot (using beta-actin as loading control). Samples of cell lysates containing equal amounts of total protein were loaded in all capillaries and FL-p53 or Collagen XVII levels were expressed relative to their respective amounts in untreated cells. D, total intracellular levels of G418 were measured in the same lysates as in (C) (n = 5; data normalized to the highest response in each experiment; bars represent mean ± SD). F, total intracellular levels of G418 were measured in the same lysates as in (E) (n = 2; data normalized to the highest response in each experiment; bars represent mean ± SD). ∗ indicates statistically significant difference between samples according to one-way ANOVA (p < 0.05). PTC, premature termination codon. […]

For `c1ccc(Cn2c(NCc3ccco3)nc3ccccc32)cc1` [AC1903], the “effect on G418-induced PTC readthrough” value (150 μM AC1903 3 h, then 400 μg/ml G418 (Fig. S12)) was “strongly reduced”, the “reduction of PTC readthrough compared with G418 alone” value (AC1903 50 μM 3 h) was 20% and the “suppression of G418-induced PTC readthrough” value (AC1903 50 μM, 400 μg/ml G418 (Fig. 1C)) was about 27%. For the same compound, the “reduction of PTC readthrough compared with G418 alone” value (AC1903 150 μM 3 h) was 74%, the “decrease in full-length p53” value (pretreatment 150 μM AC1903, increasing concentrations of G418 (Fig. 2C)) was about 70% and the “effect on PTC readthrough of AC1903 alone” value (without G418) was “did not affect PTC readthrough”.
